Reference: the CheMixHub viscosity set
± gives the uncertainty stated by the source.

Assay: xn = mol fraction of the nth substance listed

Question: Which viscosity (298.15 K, 101.3 kPa, x1 = 0.79) does the source give for `OC1CCCCC1` + Oc1ccccc1 here?
Answer: 27.6 ± 0.47 mPa·s

Question: What about the viscosity (298.15 K, 101.3 kPa, x1 = 0.89) of the same compound?
Answer: 37.1 ± 0.71 mPa·s

Question: With `CCN(CC)CCO` + NCCO as the compound, how does the viscosity (293.15 K, 101 kPa, x2 = 0.9) read?
Answer: 22.75 ± 4.6 mPa·s

Question: With `CC(C)=CC(=O)C=C(C)C` + CCCCCOC(C)=O as the compound, how does the viscosity (298.15 K, 101 kPa, x1 = 0.078) read?
Answer: 0.813 ± 0.01 mPa·s

Question: What about the viscosity (298.15 K, 101 kPa, x1 = 0.142) of the same compound?
Answer: 0.834 ± 0.01 mPa·s

Question: With `CCCCCCCO` + CCCCCC as the compound, how does the viscosity (303.15 K, 101.33 kPa, x1 = 0.0308) read?
Answer: 0.2866 ± 0.0041 mPa·s

Question: What about the viscosity (303.15 K, 101.33 kPa, x1 = 0.0919) of the same compound?
Answer: 0.3254 ± 0.0043 mPa·s

Question: And the viscosity (303.15 K, 101.33 kPa, x1 = 0.1567)?
Answer: 0.3966 ± 0.0047 mPa·s

Question: What about the viscosity (303.15 K, 101.33 kPa, x1 = 0.2496) of the same compound?
Answer: 0.5095 ± 0.0054 mPa·s

Question: What about the viscosity (303.15 K, 101.33 kPa, x1 = 0.4018) of the same compound?
Answer: 0.7642 ± 0.0071 mPa·s

Question: What about the viscosity (303.15 K, 101.33 kPa, x1 = 0.4831) of the same compound?
Answer: 0.9566 ± 0.0089 mPa·s

Question: What about the viscosity (303.15 K, 101.33 kPa, x1 = 0.578) of the same compound?
Answer: 1.248 ± 0.012 mPa·s

Question: And the viscosity (303.15 K, 101.33 kPa, x1 = 0.6838)?
Answer: 1.776 ± 0.017 mPa·s

Question: What about the viscosity (303.15 K, 101.33 kPa, x1 = 0.7882) of the same compound?
Answer: 2.479 ± 0.024 mPa·s

Question: What about the viscosity (303.15 K, 101.33 kPa, x1 = 0.8946) of the same compound?
Answer: 3.522 ± 0.034 mPa·s

Question: And the viscosity (303.15 K, 101.33 kPa, x1 = 0.9642)?
Answer: 4.384 ± 0.041 mPa·s

Question: And the viscosity (313.15 K, 101.33 kPa, x1 = 0.0308)?
Answer: 0.2693 ± 0.004 mPa·s

Question: What about the viscosity (313.15 K, 101.33 kPa, x1 = 0.0919) of the same compound?
Answer: 0.294 ± 0.0041 mPa·s

Question: And the viscosity (313.15 K, 101.33 kPa, x1 = 0.1567)?
Answer: 0.3446 ± 0.0044 mPa·s

Question: And the viscosity (313.15 K, 101.33 kPa, x1 = 0.2496)?
Answer: 0.4493 ± 0.005 mPa·s

Question: And the viscosity (313.15 K, 101.33 kPa, x1 = 0.4018)?
Answer: 0.6611 ± 0.0064 mPa·s

Question: And the viscosity (313.15 K, 101.33 kPa, x1 = 0.4831)?
Answer: 0.7663 ± 0.0074 mPa·s

Question: And the viscosity (313.15 K, 101.33 kPa, x1 = 0.578)?
Answer: 0.9882 ± 0.0093 mPa·s

Question: And the viscosity (313.15 K, 101.33 kPa, x1 = 0.6838)?
Answer: 1.348 ± 0.013 mPa·s

Question: And the viscosity (313.15 K, 101.33 kPa, x1 = 0.7882)?
Answer: 1.832 ± 0.018 mPa·s

Question: What about the viscosity (313.15 K, 101.33 kPa, x1 = 0.8946) of the same compound?
Answer: 2.473 ± 0.026 mPa·s

Question: And the viscosity (313.15 K, 101.33 kPa, x1 = 0.9642)?
Answer: 3.175 ± 0.034 mPa·s

Question: For `CS(C)=O` + Cc1ccccc1, which viscosity (298.15 K, 101 kPa, x1 = 0.1) is on record?
Answer: 0.606 ± 0.006 mPa·s

Question: And the viscosity (298.15 K, 101 kPa, x1 = 0.2)?
Answer: 0.675 ± 0.007 mPa·s

Question: What about the viscosity (298.15 K, 101 kPa, x1 = 0.3) of the same compound?
Answer: 0.761 ± 0.008 mPa·s

Question: And the viscosity (298.15 K, 101 kPa, x1 = 0.4)?
Answer: 0.867 ± 0.009 mPa·s

Question: And the viscosity (298.15 K, 101 kPa, x1 = 0.5)?
Answer: 0.99 ± 0.01 mPa·s

Question: And the viscosity (298.15 K, 101 kPa, x1 = 0.6)?
Answer: 1.122 ± 0.011 mPa·s

Question: And the viscosity (298.15 K, 101 kPa, x1 = 0.7)?
Answer: 1.268 ± 0.012 mPa·s

Question: And the viscosity (298.15 K, 101 kPa, x1 = 0.8)?
Answer: 1.452 ± 0.014 mPa·s

Question: What about the viscosity (298.15 K, 101 kPa, x1 = 0.9) of the same compound?
Answer: 1.679 ± 0.016 mPa·s

Question: And the viscosity (298.15 K, 101.3 kPa, x1 = 0.1025)?
Answer: 0.609 ± 0.017 mPa·s

Question: And the viscosity (298.15 K, 101.3 kPa, x1 = 0.2029)?
Answer: 0.671 ± 0.018 mPa·s

Question: And the viscosity (298.15 K, 101.3 kPa, x1 = 0.3843)?
Answer: 0.838 ± 0.022 mPa·s

Question: What about the viscosity (298.15 K, 101.3 kPa, x1 = 0.504) of the same compound?
Answer: 0.964 ± 0.024 mPa·s

Question: What about the viscosity (298.15 K, 101.3 kPa, x1 = 0.6035) of the same compound?
Answer: 1.095 ± 0.027 mPa·s

Question: What about the viscosity (298.15 K, 101.3 kPa, x1 = 0.7049) of the same compound?
Answer: 1.25 ± 0.031 mPa·s

Question: And the viscosity (298.15 K, 101.3 kPa, x1 = 0.7997)?
Answer: 1.43 ± 0.035 mPa·s

Question: What about the viscosity (298.15 K, 101.3 kPa, x1 = 0.9017) of the same compound?
Answer: 1.686 ± 0.04 mPa·s

Question: What about the viscosity (302.4 K, 101 kPa, x1 = 0.0908) of the same compound?
Answer: 1.087 mPa·s

Question: And the viscosity (302.4 K, 101 kPa, x1 = 0.2568)?
Answer: 1.399 mPa·s

Question: And the viscosity (302.4 K, 101 kPa, x1 = 0.4732)?
Answer: 1.615 mPa·s

Question: What about the viscosity (302.4 K, 101 kPa, x1 = 0.5996) of the same compound?
Answer: 2.242 mPa·s

Question: And the viscosity (302.4 K, 101 kPa, x1 = 0.7139)?
Answer: 2.506 mPa·s

Question: And the viscosity (302.4 K, 101 kPa, x1 = 0.8665)?
Answer: 3.234 mPa·s

Question: And the viscosity (303.15 K, 101.3 kPa, x1 = 0.1025)?
Answer: 0.574 ± 0.016 mPa·s

Question: What about the viscosity (303.15 K, 101.3 kPa, x1 = 0.2029) of the same compound?
Answer: 0.636 ± 0.017 mPa·s

Question: And the viscosity (303.15 K, 101.3 kPa, x1 = 0.3843)?
Answer: 0.777 ± 0.02 mPa·s

Question: What about the viscosity (303.15 K, 101.3 kPa, x1 = 0.504) of the same compound?
Answer: 0.894 ± 0.023 mPa·s

Question: And the viscosity (303.15 K, 101.3 kPa, x1 = 0.6035)?
Answer: 1.01 ± 0.025 mPa·s

Question: What about the viscosity (303.15 K, 101.3 kPa, x1 = 0.7049) of the same compound?
Answer: 1.149 ± 0.028 mPa·s

Question: And the viscosity (303.15 K, 101.3 kPa, x1 = 0.7997)?
Answer: 1.309 ± 0.032 mPa·s

Question: And the viscosity (303.15 K, 101.3 kPa, x1 = 0.9017)?
Answer: 1.526 ± 0.037 mPa·s

Question: What about the viscosity (308.15 K, 101 kPa, x1 = 0.1) of the same compound?
Answer: 0.537 ± 0.006 mPa·s

Question: And the viscosity (308.15 K, 101 kPa, x1 = 0.2)?
Answer: 0.594 ± 0.006 mPa·s

Question: What about the viscosity (308.15 K, 101 kPa, x1 = 0.3) of the same compound?
Answer: 0.664 ± 0.007 mPa·s

Question: And the viscosity (308.15 K, 101 kPa, x1 = 0.4)?
Answer: 0.741 ± 0.008 mPa·s

Question: And the viscosity (308.15 K, 101 kPa, x1 = 0.5)?
Answer: 0.833 ± 0.008 mPa·s

Question: And the viscosity (308.15 K, 101 kPa, x1 = 0.6)?
Answer: 0.937 ± 0.009 mPa·s

Question: What about the viscosity (308.15 K, 101 kPa, x1 = 0.7) of the same compound?
Answer: 1.065 ± 0.011 mPa·s

Question: What about the viscosity (308.15 K, 101 kPa, x1 = 0.8) of the same compound?
Answer: 1.217 ± 0.012 mPa·s

Question: And the viscosity (308.15 K, 101 kPa, x1 = 0.9)?
Answer: 1.407 ± 0.014 mPa·s

Question: And the viscosity (308.15 K, 101.3 kPa, x1 = 0.1025)?
Answer: 0.54 ± 0.015 mPa·s

Question: And the viscosity (308.15 K, 101.3 kPa, x1 = 0.2029)?
Answer: 0.598 ± 0.016 mPa·s

Question: And the viscosity (308.15 K, 101.3 kPa, x1 = 0.3843)?
Answer: 0.727 ± 0.019 mPa·s

Question: What about the viscosity (308.15 K, 101.3 kPa, x1 = 0.504) of the same compound?
Answer: 0.833 ± 0.021 mPa·s

Question: And the viscosity (308.15 K, 101.3 kPa, x1 = 0.6035)?
Answer: 0.963 ± 0.024 mPa·s

Question: What about the viscosity (308.15 K, 101.3 kPa, x1 = 0.7049) of the same compound?
Answer: 1.062 ± 0.027 mPa·s

Question: And the viscosity (308.15 K, 101.3 kPa, x1 = 0.7997)?
Answer: 1.204 ± 0.03 mPa·s

Question: What about the viscosity (308.15 K, 101.3 kPa, x1 = 0.9017) of the same compound?
Answer: 1.398 ± 0.034 mPa·s

Question: What about the viscosity (318.15 K, 101 kPa, x1 = 0.1) of the same compound?
Answer: 0.482 ± 0.005 mPa·s

Question: What about the viscosity (318.15 K, 101 kPa, x1 = 0.2) of the same compound?
Answer: 0.53 ± 0.006 mPa·s

Question: And the viscosity (318.15 K, 101 kPa, x1 = 0.3)?
Answer: 0.587 ± 0.006 mPa·s

Question: What about the viscosity (318.15 K, 101 kPa, x1 = 0.4) of the same compound?
Answer: 0.654 ± 0.007 mPa·s

Question: What about the viscosity (318.15 K, 101 kPa, x1 = 0.5) of the same compound?
Answer: 0.731 ± 0.007 mPa·s

Question: What about the viscosity (318.15 K, 101 kPa, x1 = 0.6) of the same compound?
Answer: 0.817 ± 0.008 mPa·s

Question: What about the viscosity (318.15 K, 101 kPa, x1 = 0.7) of the same compound?
Answer: 0.921 ± 0.009 mPa·s

Question: What about the viscosity (318.15 K, 101 kPa, x1 = 0.8) of the same compound?
Answer: 1.047 ± 0.01 mPa·s

Question: And the viscosity (318.15 K, 101 kPa, x1 = 0.9)?
Answer: 1.201 ± 0.012 mPa·s
